Laboratory results reported in US4743541A, “Luminescent substrate preparation and its use in specific binding assays” (priority 1985, dated 1988).
Like-named read-outs stand apart in the source and are kept apart here.

Molecular target: T1, horseradish peroxidase (HRP) (Armoracia rusticana, UniProt P00433)
T1 sequence (P00433 31-353): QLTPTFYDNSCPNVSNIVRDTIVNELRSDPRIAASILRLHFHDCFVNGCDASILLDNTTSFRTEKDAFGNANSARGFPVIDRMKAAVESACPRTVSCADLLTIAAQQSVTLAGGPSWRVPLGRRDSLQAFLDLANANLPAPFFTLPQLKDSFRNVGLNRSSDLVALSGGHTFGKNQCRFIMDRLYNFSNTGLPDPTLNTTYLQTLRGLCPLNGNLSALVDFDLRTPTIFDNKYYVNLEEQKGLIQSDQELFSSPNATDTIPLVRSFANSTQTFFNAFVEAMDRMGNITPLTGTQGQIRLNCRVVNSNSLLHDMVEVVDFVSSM
Method: A standardized test procedure for measuring luminol light output has been established. To 0.5 ml of 50 mM borate buffer, pH 9.4, are added 0.5 ml of 40 mM luminol in 45 mM NaOH, pH 11.0; 0.5 ml of 4 mM hydrogen peroxide in 0.01M phosphate buffered saline (PBS), pH 7.0; 0.4 ml of deionized water; and 0.1 ml of 200 mU/ml horseradish peroxidase (HRP) to yield a final 2.0 ml volume containing; 10 mM luminol; 1 mM H2 O2; 12.5 mM borate buffer, pH 9.4; and 20 mU HRP in an aqueous solution having a final pH of 9.4. The enzyme HRP is added last, the solution mixed and relative intensity readings taken on an Ames Fluorocolorimeter (Miles Labs, Inc., Elkhart, IN) at various time points from 1 minute to 2 hours.
The chemical synthesis of luminol and other luminescent substrates use chemicals which can inhibit the catalysts used in luminescent reactions. Two of these inhibitory chemicals known to be used in luminol synthesis were added back to a luminescent reaction using the luminol prepared in Example 1 above.

Molecule	Effect on luminescence yield in the reaction	% Reaction (hrp luminol luminescence, pH 9.4, 30 min) [%]	Amount in the luminol that can inhibit the production of light	Effect on luminescence yield in the reaction (in words)
N.N.O=S(=O)(O)O [Ammonium Sulfate, ammonium sulfate]	had no effect	100		
NN.O=S(=O)(O)O [Hydrazine Sulfate, hydrazine sulfate]			greater than 100 ppm	drastically inhibits
ammonium sulfide			greater than 100 ppm	drastically inhibits
